Test results from patent US10975056B2 (GlaxoSmithKline Intellectual Property Development Limited, priority 2016, dated 2021).
Where a name gives a salt, the structure may show the parent alone. Read-outs that look alike come from different tables or passages of the source.

Experiments:
DNMT1 = DNMT1 (Homo sapiens, UniProt P26358); assay: DNMT1 biochemical activity, breaklight assay and/or SPA assay
[1] = system: erythroid progenitor cells (EPCs); assay: Fetal hemoglobin (HbF) ELISA in day 7 erythroid progenitor cells; assay type: cell-based, human; conditions: Homo sapiens, Erythroid progenitor cell, HbF ELISA, day 7 EPCs, 5 days; read-out: EPC ELISA (pEC50 category) (converted);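 also: for fetal hemoglobin induction normalized to vehicle-treated cells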
Outline: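 HbF induction was read by anti-HbF sandwich ELISA (HRP/TMB, OD450) on lysates and normalized to vehicle-treated cells. Cells were day 7 erythroid progenitors derived from human bone marrow CD34+ cells, seeded at 1,000/well with 3 U/mL rhEPO. Compound was given for 5 days at 37 °C at final concentrations […].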

[2] = binned activity in either the breaklight or the SPA assay
[3] = binned activity in either the breaklight or the SPA assay, read-out: DNMT1 BioChemical (pIC50 category) (converted)
[4] = breaklight assay and/or SPA assay, repeated experimental runs
[5] = breaklight assay and/or SPA assay, repeated experimental runs, read-out: average pIC50 against DNMT1 (converted)

DNMT1, sequence (P26358 whole entry, looked up): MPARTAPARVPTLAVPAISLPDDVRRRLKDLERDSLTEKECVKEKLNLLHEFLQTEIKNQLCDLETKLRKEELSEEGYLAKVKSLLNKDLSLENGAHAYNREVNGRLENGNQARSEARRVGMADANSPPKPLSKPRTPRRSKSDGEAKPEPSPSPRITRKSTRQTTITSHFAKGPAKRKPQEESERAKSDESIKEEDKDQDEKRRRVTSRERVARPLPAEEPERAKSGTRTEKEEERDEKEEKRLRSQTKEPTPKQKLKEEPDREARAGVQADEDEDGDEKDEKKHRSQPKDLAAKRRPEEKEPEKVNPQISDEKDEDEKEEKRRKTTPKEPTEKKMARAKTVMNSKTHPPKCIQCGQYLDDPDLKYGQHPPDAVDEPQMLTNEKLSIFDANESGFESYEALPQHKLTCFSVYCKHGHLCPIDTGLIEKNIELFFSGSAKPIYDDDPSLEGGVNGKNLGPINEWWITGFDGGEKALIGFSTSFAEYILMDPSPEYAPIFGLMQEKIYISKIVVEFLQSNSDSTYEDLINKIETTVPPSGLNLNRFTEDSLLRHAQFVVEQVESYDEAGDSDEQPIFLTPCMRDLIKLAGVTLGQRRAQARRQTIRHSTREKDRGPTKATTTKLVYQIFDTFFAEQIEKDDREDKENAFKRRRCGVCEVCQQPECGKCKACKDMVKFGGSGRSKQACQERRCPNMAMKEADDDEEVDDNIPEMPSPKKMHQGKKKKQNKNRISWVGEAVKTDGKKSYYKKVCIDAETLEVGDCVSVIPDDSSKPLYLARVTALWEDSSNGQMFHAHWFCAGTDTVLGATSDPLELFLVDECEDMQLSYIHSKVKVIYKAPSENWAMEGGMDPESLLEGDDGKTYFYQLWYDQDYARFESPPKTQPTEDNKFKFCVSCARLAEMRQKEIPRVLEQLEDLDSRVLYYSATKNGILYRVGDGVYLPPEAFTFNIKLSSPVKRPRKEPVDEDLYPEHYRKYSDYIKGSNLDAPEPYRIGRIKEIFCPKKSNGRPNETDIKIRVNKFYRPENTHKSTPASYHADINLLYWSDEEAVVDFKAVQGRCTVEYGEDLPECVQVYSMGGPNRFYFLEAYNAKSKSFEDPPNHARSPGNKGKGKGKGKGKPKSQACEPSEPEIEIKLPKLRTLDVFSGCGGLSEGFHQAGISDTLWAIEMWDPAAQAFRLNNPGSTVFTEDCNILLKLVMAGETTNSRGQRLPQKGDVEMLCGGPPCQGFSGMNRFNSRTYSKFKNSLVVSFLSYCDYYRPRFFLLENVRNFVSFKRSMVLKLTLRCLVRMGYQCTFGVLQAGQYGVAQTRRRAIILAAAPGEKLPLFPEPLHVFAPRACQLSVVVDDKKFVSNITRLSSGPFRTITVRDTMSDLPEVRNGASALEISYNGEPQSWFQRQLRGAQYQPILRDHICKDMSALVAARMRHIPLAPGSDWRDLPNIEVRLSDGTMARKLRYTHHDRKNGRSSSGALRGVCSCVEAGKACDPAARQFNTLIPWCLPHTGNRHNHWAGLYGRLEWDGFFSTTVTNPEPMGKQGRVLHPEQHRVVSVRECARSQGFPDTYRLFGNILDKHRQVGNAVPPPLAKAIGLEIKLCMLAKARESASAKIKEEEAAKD

Structure (SMILES) | DNMT1 BioChemical (pIC50 category) (DNMT1; [2]) | EC50 [1] | IC50 (DNMT1; [3]) | average pIC50 against DNMT1 (DNMT1; [4]) | IC50 (DNMT1; [5]) | average pIC50 against DNMT1 (DNMT1; breaklight assay and/or SPA assay, repeated experimental runs, methanesulfonate 2,2,2-trifluoroacetate)
CCc1c(C#N)c(SCc2ccc(N(C)S(C)(=O)=O)cc2)nc(N(C)CCN2CCCC2)c1C#N [Example 570, N-(4-(((3,5-dicyano-4-ethyl-6-(methyl(2-(pyrrolidin-1-yl)ethyl)amino)pyridin-2-yl)thio)methyl)phenyl)-N-methylmethanesulfonamide] | D (Category D: ≥6.5) | < 316 nM |  |  |  | 
CCc1c(C#N)c(SC(C(N)=O)c2ccc(F)cc2)nc(N2CCN(C(C)(C)CO)CC2)c1C#N (stereo not drawn) [Example 222, 2-((3,5-Dicyano-4-ethyl-6-(4-(1-hydroxy-2-methylpropan-2-yl)piperazin-1-yl)pyridin-2-yl)thio)-2-(4-fluorophenyl)acetamide] |  | 316 to 1000 nM | 1000 to 31600 nM |  |  | 
CN1CCCN(c2nc(SC(C(N)=O)c3ccccc3)c(C#N)c(-c3ccco3)c2C#N)CC1 (stereo not drawn) [Example 135, 2-((3,5-dicyano-4-(furan-2-yl)-6-(4-methyl-1,4-diazepan-1-yl)pyridin-2-yl)thio)-2-phenylacetamide] |  | 1000 to 31600 nM | 316 to 1000 nM |  |  | 
CCc1c(C#N)c(SC(C(N)=O)c2ccccc2)nc(N2CCC[C@H](NC3COC3)C2)c1C#N (stereo partly drawn) [Example 640, 2-((3,5-dicyano-4-ethyl-6-((S)-3-(oxetan-3-ylamino)piperidin-1-yl)pyridin-2-yl)thio)-2-phenylacetamide] | D (Category D: ≥6.5) | < 316 nM |  |  |  | 
CCc1c(Cl)c(SC(C(N)=O)c2ccccc2)nc(N2CCCN(CCO)CC2)c1Cl (stereo not drawn) [Example 203, 2-((3,5-Dichloro-4-ethyl-6-(4-(2-hydroxyethyl)-1,4-diazepan-1-yl)pyridin-2-yl)thio)-2-phenylacetamide] |  | > 31600 nM | 316 to 1000 nM |  |  | 
CCc1c(C#N)c(SC(C(N)=O)c2ccc(F)cc2)nc(N2CCNCC2)c1C#N (stereo not drawn) [Example 196, 2-((3,5-Dicyano-4-ethyl-6-(piperazin-1-yl)pyridin-2-yl)thio)-2-(4-fluorophenyl)acetamide, Trifluoroacetic Acid Salt] | D (Category D: ≥6.5) | < 316 nM |  |  |  | 
CCc1c(C#N)c(S[C@@H](C(N)=O)c2ccccc2)nc(N2CC[C@H](O)C2)c1C#N [Example 168, (R)-2-((3,5-Dicyano-4-ethyl-6-((S)-3-hydroxypyrrolidin-1-yl)pyridin-2-yl)thio)-2-phenylacetamide] | D (Category D: ≥6.5) | 316 to 1000 nM |  | > 6.5 | 200 nM | 
CCc1c(C#N)c(S[C@@H](C(N)=O)c2ccccc2)nc(N2CC[C@@H](N)[C@@H](F)C2)c1C#N [Example 506, (R)-2-((6-((3S,4R)-4-amino-3-fluoropiperidin-1-yl)-3,5-dicyano-4-ethylpyridin-2-yl)thio)-2-phenylacetamide 2,2,2-trifluoroacetate] | D (Category D: ≥6.5) | < 316 nM |  |  |  | 
CCc1c(C#N)c(SCc2ccc(CNC(=O)CC(C)C)cc2)nc(N2CCCN(C)CC2)c1C#N [Example 89, N-(4-(((3,5-Dicyano-4-ethyl-6-(4-methyl-1,4-diazepan-1-yl)pyridin-2-yl)thio)methyl)benzyl)-3-methylbutanamide] |  | > 31600 nM | 316 to 1000 nM |  |  | 
CCc1c(C#N)c(SC(C(N)=O)c2ccccc2)nc(N(C)CC(=O)NCCO)c1C#N (stereo not drawn) [Example 669, 2-((6-((2-amino-2-oxo-1-phenylethyl)thio)-3,5-dicyano-4-ethylpyridin-2-yl)(methyl)amino)-N-(2-hydroxyethyl)acetamide] | D (Category D: ≥6.5) | < 316 nM |  |  |  | 
CCc1c(C#N)c(SC(C(N)=O)c2ccccc2)nc(N(C)CCN2CCCCCC2)c1C#N (stereo not drawn) [Example 477, 2-((6-((2-(azepan-1-yl)ethyl)(methyl)amino)-3,5-dicyano-4-ethylpyridin-2-yl)thio)-2-phenylacetamide] | D (Category D: ≥6.5) | < 316 nM |  | > 6.5 | 100 nM | 
CSc1c(C#N)c(SCc2ccc(CNC(C)=O)cc2)nc(N2CCCN(C)CC2)c1C#N [Example 101, N-(4-(((3,5-Dicyano-6-(4-methyl-1,4-diazepan-1-yl)-4-(methylthio)pyridin-2-yl)thio)methyl)benzyl)acetamide] | D (Category D: ≥6.5) | 316 to 1000 nM |  |  |  | 
CCc1c(C#N)c(SC(C(N)=O)c2ccccc2)nc(N2CCC(NC(=O)CCCN)CC2)c1C#N (stereo not drawn) [Example 629, 4-amino-N-(1-(6-((2-amino-2-oxo-1-phenylethyl)thio)-3,5-dicyano-4-ethylpyridin-2-yl)piperidin-4-yl)butanamide formate] | D (Category D: ≥6.5) | 1000 to 31600 nM |  |  |  | 
CCc1c(C#N)c(SC(C(N)=O)c2ccccc2)nc(N2CCC(NCC(C)(C)O)CC2)c1C#N (stereo not drawn) [Example 447, 2-((3,5-dicyano-4-ethyl-6-(4-((2-hydroxy-2-methylpropyl)amino)piperidin-1-yl)pyridin-2-yl)thio)-2-phenylacetamide] | D (Category D: ≥6.5) | < 316 nM |  |  |  | 
CCc1c(C#N)c(SCc2ccc(N(C)S(C)(=O)=O)cc2)nc(N2CCC(NC(=O)C(C)(C)N)CC2)c1C#N [Example 572, 2-amino-N-(1-(3,5-dicyano-4-ethyl-6-((4-(N-methylmethylsulfonamido)benzyl)thio)pyridin-2-yl)piperidin-4-yl)-2-methylpropanamide] | D (Category D: ≥6.5) | < 316 nM |  |  |  | 
CCc1c(C#N)c(SCc2ccc(CNC(=O)CCN)cc2)nc(N2CCCN(C)CC2)c1C#N [Example 96, 3-Amino-N-(4-(((3,5-dicyano-4-ethyl-6-(4-methyl-1,4-diazepan-1-yl)pyridin-2-yl)thio)methyl)benzyl)propanamide] | D (Category D: ≥6.5) | > 31600 nM |  |  |  | 
CCc1c(C#N)c(SC(C(N)=O)C2CCNCC2)nc(N(C)C)c1C#N (stereo not drawn) [Example 157, 2-((3,5-dicyano-6-(dimethylamino)-4-ethylpyridin-2-yl)thio)-2-(piperidin-4-yl)acetamide] |  | 1000 to 31600 nM | 1000 to 31600 nM |  |  | 
CCc1c(C#N)c(SC(C(N)=O)c2ccncc2F)nc(N2CCCN(C)CC2)c1C#N (stereo not drawn) [Example 248, 2-((3,5-Dicyano-4-ethyl-6-(4-methyl-1,4-diazepan-1-yl)pyridin-2-yl)thio)-2-(3-fluoropyridin-4-yl)acetamide] |  | > 31600 nM | 316 to 1000 nM |  |  | 
CCc1c(C#N)c(SC(C(N)=O)c2ccc(S(=O)(=O)NC)cc2)nc(N2CCCN(C)CC2)c1C#N (stereo not drawn) [Example 378] |  | 1000 to 31600 nM | 316 to 1000 nM |  |  | 
CCc1c(C#N)c(S[C@@H](C(N)=O)c2ccc(Cl)cc2)nc(N2CC[C@H](O)C2)c1C#N [Example 424, (R)-2-(4-chlorophenyl)-2-((3,5-dicyano-4-ethyl-6-((S)-3-hydroxypyrrolidin-1-yl)pyridin-2-yl)thio)acetamide] | D (Category D: ≥6.5) | 316 to 1000 nM |  |  |  | 
CCc1c(C#N)c(SCc2ccc(OS(C)(=O)=O)cc2)nc(N2CCC(N)CC2)c1C#N [Example 626, 4-(((6-(4-aminopiperidin-1-yl)-3,5-dicyano-4-ethylpyridin-2-yl)thio)methyl)phenyl methanesulfonate 2,2,2-trifluoroacetate] | D (Category D: ≥6.5) | < 316 nM |  |  | 200 nM | > 6.5
CCc1c(C#N)c(N[C@@H](C(N)=O)c2ccccc2)nc(N2CCCN(CCCN3CCCC3)CC2)c1C#N [Example 163, (R)-2-((3,5-Dicyano-4-ethyl-6-(4-(3-(pyrrolidin-1-yl)propyl)-1,4-diazepan-1-yl)pyridin-2-yl)amino)-2-phenylacetamide] |  | > 31600 nM | 1000 to 31600 nM |  |  | 
CCc1c(C#N)c(SC(C(N)=O)c2ccccc2)nc(N(C)CC(=O)NC[C@@H](O)CO)c1C#N (stereo partly drawn) [Example 666, 2-((6-((2-amino-2-oxo-1-phenylethyl)thio)-3,5-dicyano-4-ethylpyridin-2-yl)(methyl)amino)-N-((R)-2,3-dihydroxypropyl)acetamide] | D (Category D: ≥6.5) | 1000 to 31600 nM |  |  |  | 
CCc1c(C#N)c(SC(C(N)=O)c2ccccc2)nc(N(C)CC(=O)NC2(CO)COC2)c1C#N (stereo not drawn) [Example 675, 2-((6-((2-amino-2-oxo-1-phenylethyl)thio)-3,5-dicyano-4-ethylpyridin-2-yl)(methyl)amino)-N-(3-(hydroxymethyl)oxetan-3-yl)acetamide] |  | 316 to 1000 nM | < 316 nM |  |  | 
CC1(N)CCN(c2nc(SC(C(N)=O)c3ccccc3)c(C#N)c(C3CC3)c2C#N)CC1 (stereo not drawn) [Example 321, 2-((6-(4-Amino-4-methylpiperidin-1-yl)-3,5-dicyano-4-cyclopropvlpyridin-2-yl)thio)-2-phenylacetamide] | D (Category D: ≥6.5) | < 316 nM |  |  |  | 
CCc1c(C#N)c(SC(C(N)=O)c2ccccc2)nc(N2CC(CN)C2)c1C#N (stereo not drawn) [Example 671, 2-((6-(3-(aminomethyl)azetidin-1-yl)-3,5-dicyano-4-ethylpyridin-2-yl)thio)-2-phenylacetamide] | D (Category D: ≥6.5) | < 316 nM |  |  |  | 
CCc1c(C#N)c(SC(C(N)=O)c2ccccc2)nc(N2CC[C@@](F)(CN)C2)c1C#N (stereo partly drawn) [Example 632, 2-((6-((R)-3-(aminomethyl)-3-fluoropyrrolidin-1-yl)-3,5-dicyano-4-ethylpyridin-2-yl)thio)-2-phenylacetamide] | D (Category D: ≥6.5) | 1000 to 31600 nM |  |  |  | 
